# System: Mus musculus
# Experiment: Anti-inflammatory activity in TPA-induced CD1 mouse ear acute inflammation model assessed as reduction in TPA-induced ear edema administered topically 10 mins prior to TPA challenge measured after 4 hrs
# Type: functional
Compound,ID50,inhibition
COc1ccc2c(c1)c(CC(=O)O)c(C)n2C(=O)c1ccc(Cl)cc1 [INDOMETHACIN],0.24 µmol,
CC(C)=CC(=O)C[C@@]12O[C@@H]1CC[C@]1(C)O[C@](C)(C(O)CO)CC[C@@H]1OC2=O (some centres not stated),1.49 µmol,Dose-dependent effect
C=C1C(=O)O[C@@H]2/C=C(\C)CC/C=C(/C(=O)OC)[C@H](O)[C@@H](OC(=O)[C@]3(C)O[C@@H]3C)[C@@H]12,1.15 µmol,Dose-dependent effect
C=C1C(=O)O[C@@H]2/C=C(\C)CC/C=C(/C(=O)OC)[C@H](O)[C@@H](OC(=O)/C(C)=C\C)[C@@H]12,0.56 µmol,Dose-dependent effect
C=C1C(=O)O[C@@H]2/C=C(\C)[C@@H]3O[C@@H]3/C=C(/C(=O)OC)[C@H](O)[C@@H](OC(=O)[C@]3(C)O[C@@H]3C)[C@@H]12 [MELAMPODIN A],1.14 µmol,Dose-dependent effect

# System: Mus musculus
# Experiment: Anti-inflammatory activity in TPA-induced CD1 mouse ear acute inflammation model assessed as reduction in TPA-induced ear edema at 1 mg/ear administered topically 10 mins prior to TPA challenge measured after 4 hrs relative to control
# Type: functional
row,Compound,inhibition (INH)
1,C=C1C(=O)O[C@@H]2/C=C(\C)[C@@H]3O[C@@H]3/C=C(/C(=O)OC)[C@H](OC(=O)[C@]3(C)O[C@@H]3C)[C@@H](OC(=O)[C@]3(C)O[C@@H]3C)[C@@H]12,<50%
2,CC1(C)[C@H]2CC[C@@]34C[C@@H](CC[C@H]3[C@]2(C)CC[C@@H]1O)[C@@](O)(CO)C4,<50%
3,C=C1C(=O)O[C@H]2[C@H]1[C@H](OC(=O)[C@]1(C)O[C@@H]1C)[C@@H](OC(=O)[C@]1(C)O[C@@H]1C)/C(C(=O)OC)=C\CC[C@@]1(C)O[C@H]21,<50%
